Results on 74 compounds are retold here after EP1247803A2, “Indolinone compounds suitable for modulation of protein kinases” (Sugen, Inc., priority 1996, dated 1998).

In this assay the target is T1, EGFR (Homo sapiens, UniProt P00533).
T1 construct: Add 7 ug A431 cell lysate per well (EGFR source); endogenous in cells; host or cells: A431
T1 sequence (P00533 25-1210): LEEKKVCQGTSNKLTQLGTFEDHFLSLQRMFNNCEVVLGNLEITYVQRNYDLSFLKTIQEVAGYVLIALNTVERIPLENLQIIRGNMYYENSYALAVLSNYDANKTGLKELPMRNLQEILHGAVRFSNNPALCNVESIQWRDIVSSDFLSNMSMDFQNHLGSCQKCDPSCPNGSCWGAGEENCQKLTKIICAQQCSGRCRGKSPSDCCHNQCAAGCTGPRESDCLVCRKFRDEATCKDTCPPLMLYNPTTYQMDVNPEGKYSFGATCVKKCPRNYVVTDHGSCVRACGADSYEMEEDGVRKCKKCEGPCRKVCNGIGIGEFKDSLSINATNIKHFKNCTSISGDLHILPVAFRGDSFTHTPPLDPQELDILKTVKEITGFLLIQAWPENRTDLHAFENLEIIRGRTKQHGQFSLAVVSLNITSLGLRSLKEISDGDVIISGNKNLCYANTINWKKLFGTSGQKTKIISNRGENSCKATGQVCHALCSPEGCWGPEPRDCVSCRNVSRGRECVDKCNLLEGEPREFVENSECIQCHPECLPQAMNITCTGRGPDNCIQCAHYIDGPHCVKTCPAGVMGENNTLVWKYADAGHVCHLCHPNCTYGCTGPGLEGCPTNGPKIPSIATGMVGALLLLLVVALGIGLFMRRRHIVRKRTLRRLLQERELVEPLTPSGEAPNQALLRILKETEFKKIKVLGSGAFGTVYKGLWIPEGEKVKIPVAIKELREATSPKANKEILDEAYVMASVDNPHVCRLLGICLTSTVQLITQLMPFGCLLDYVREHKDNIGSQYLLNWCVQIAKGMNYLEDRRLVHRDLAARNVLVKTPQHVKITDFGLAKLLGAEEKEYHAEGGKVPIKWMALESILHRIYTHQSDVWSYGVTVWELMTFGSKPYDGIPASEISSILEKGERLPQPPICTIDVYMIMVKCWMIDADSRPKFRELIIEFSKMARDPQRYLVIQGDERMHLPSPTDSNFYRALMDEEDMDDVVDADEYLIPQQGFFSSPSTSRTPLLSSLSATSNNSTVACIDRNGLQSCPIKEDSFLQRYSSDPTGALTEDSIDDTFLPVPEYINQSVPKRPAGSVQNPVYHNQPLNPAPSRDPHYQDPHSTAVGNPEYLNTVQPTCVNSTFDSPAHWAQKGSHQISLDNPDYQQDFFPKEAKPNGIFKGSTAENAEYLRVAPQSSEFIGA
As to the kind of experiment: EGFR ELISA assay (in vitro kinase activity, EGFR captured from A431 cell lysate). Set-up: concentration or dose not given beside the values. The format is biochemical. The gist of the method: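 EGFR from A431 lysate was captured on anti-EGFR antibody-coated plates and preincubated with compounds for 30 min. Autophosphorylation ran 5 min with 3 uM ATP and 5 mM MnCl2 (final), stopped with 20 mM EDTA. Phosphotyrosine was detected by anti-pTyr ELISA with ABTS/H2O2, read at 410 nm.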
On the technique in general: ELISA stands for enzyme-linked immunosorbent assay.
Take `Cc1ccc(C=C2C(=O)Nc3c(Br)cc(Br)cc32)s1` [10717/A07]: the “Biochem EGFR %Inhibition” value is given as 20.2%.
As for `Cc1c(O)ccc(C=C2C(=O)Nc3c(Br)cc(Br)cc32)c1O` [10718/A09], the “Biochem EGFR %Inhibition” value is on record as -4.1%.
Regarding `O=C1Nc2c(Br)cc(Br)cc2C1=Cc1ccco1` [10718/A10], the “Biochem EGFR %Inhibition” value is 41.5%.
As for `O=C1Nc2c(Br)cc(Br)cc2C1=Cc1ccc([N+](=O)[O-])o1` [10718/A11], the “Biochem EGFR %Inhibition” value came out at 21.2%.
For the compound `CCOC(=O)c1c(C)[nH]c(C=C2C(=O)Nc3ccc(I)cc32)c1C` [10718/B02], the “Biochem EGFR %Inhibition” value stood at 24.9%.
For the compound `COc1cc(Br)c(O)c(C=C2C(=O)Nc3ccc(I)cc32)c1` [10718/B03], the “Biochem EGFR %Inhibition” value is on record as -0.2%.
In the case of `O=C1Nc2ccc(I)cc2C1=Cc1ccc2ccccc2c1O` [10718/B04], the “Biochem EGFR %Inhibition” value came to 8.5%.
As to `CCOC(=O)c1cc(C=C2C(=O)Nc3ccc(I)cc32)oc1C` [10718/B06], the “Biochem EGFR %Inhibition” value worked out at 28.5%.
`CNS(=O)(=O)c1ccc2c(c1)C(=Cc1cccc(C(F)(F)F)c1F)C(=O)N2` [10728/D07]: the “Biochem EGFR %Inhibition” value was 2.4%.
In the case of `CNS(=O)(=O)c1ccc2c(c1)C(=Cc1cc(C(F)(F)F)ccc1F)C(=O)N2` [10728/D08], the “Biochem EGFR %Inhibition” value is reported as 6.9%.
The result for `CNS(=O)(=O)c1ccc2c(c1)C(=Cc1c(F)cccc1C(F)(F)F)C(=O)N2` [10728/D09] reads -2.9%.
On to `CNS(=O)(=O)c1ccc2c(c1)C(=Cc1ccccc1OCC(=O)O)C(=O)N2` [10728/D10], for which the “Biochem EGFR %Inhibition” value was determined as 18.6%.
On to `CNS(=O)(=O)c1ccc2c(c1)C(=Cc1cc(OC)c3c(c1)OCO3)C(=O)N2` [10728/D11], for which the “Biochem EGFR %Inhibition” value stood at 22.1%.
Regarding `COc1ccc(OC)c(C=C2C(=O)Nc3ccc(S(=O)(=O)Nc4ccc(C(F)(F)F)cc4)cc32)c1` [10728/E02], the “Biochem EGFR %Inhibition” value stood at 7.4%.
For the compound `COc1cccc(OC)c1C=C1C(=O)Nc2ccc(S(=O)(=O)Nc3ccc(C(F)(F)F)cc3)cc21` [10728/E03], the “Biochem EGFR %Inhibition” value is given as 9.5%.
Regarding `COc1cc(C=C2C(=O)Nc3ccc(S(=O)(=O)Nc4ccc(C(F)(F)F)cc4)cc32)cc(OC)c1` [10728/E04], the “Biochem EGFR %Inhibition” value is 10.1%.
With `COc1cc(N(C)C)ccc1C=C1C(=O)Nc2ccc(S(=O)(=O)Nc3ccc(C(F)(F)F)cc3)cc21` [10728/E05], the “Biochem EGFR %Inhibition” value was determined as 7.4%.
In the case of `O=C1Nc2ccc(S(=O)(=O)Nc3ccc(C(F)(F)F)cc3)cc2C1=Cc1ccc2c(c1)Cc1ccccc1-2` [10728/E06], the “Biochem EGFR %Inhibition” value is recorded as -4.7%.
With `O=C1Nc2ccc(S(=O)(=O)Nc3ccc(C(F)(F)F)cc3)cc2C1=Cc1cccc(C(F)(F)F)c1F` [10728/E07], the “Biochem EGFR %Inhibition” value stood at 21.8%.
On to `O=C1Nc2ccc(S(=O)(=O)Nc3ccc(C(F)(F)F)cc3)cc2C1=Cc1cc(C(F)(F)F)ccc1F` [10728/E08], for which the “Biochem EGFR %Inhibition” value is 5.1%.
Consider `O=C1Nc2ccc(S(=O)(=O)Nc3ccc(C(F)(F)F)cc3)cc2C1=Cc1c(F)cccc1C(F)(F)F` [10728/E09], for which the “Biochem EGFR %Inhibition” value is recorded as 0.1%.
With `O=C(O)COc1ccccc1C=C1C(=O)Nc2ccc(S(=O)(=O)Nc3ccc(C(F)(F)F)cc3)cc21` [10728/E10] the figure was -20.8%; with `COc1cc(C=C2C(=O)Nc3ccc(S(=O)(=O)Nc4ccc(C(F)(F)F)cc4)cc32)cc2c1OCO2` [10728/E11], -5.9%; with `COc1ccc(OC)c(C=C2C(=O)Nc3ccc(S(=O)(=O)NN4CCOCC4)cc32)c1` [10728/F02], 4.4%.
As for `COc1ccc(OC)c(C=C2C(=O)Nc3ccc(CCCl)cc32)c1` [10728/G02], the “Biochem EGFR %Inhibition” value was -10.2%.
As for `COc1cccc(OC)c1C=C1C(=O)Nc2ccc(CCCl)cc21` [10728/G03], the “Biochem EGFR %Inhibition” value is listed as -2.0%.
The result for `COc1cc(C=C2C(=O)Nc3ccc(CCCl)cc32)cc(OC)c1` [10728/G04] reads -8.2%.
Turning to `COc1cc(N(C)C)ccc1C=C1C(=O)Nc2ccc(CCCl)cc21` [10728/G05], the “Biochem EGFR %Inhibition” value amounted to 7.2%.
With `O=C1Nc2ccc(CCCl)cc2C1=Cc1ccc2c(c1)Cc1ccccc1-2` [10728/G06] the figure was -14.1%; with `O=C1Nc2ccc(CCCl)cc2C1=Cc1cccc(C(F)(F)F)c1F` [10728/G07], -12.3%.
As for `O=C1Nc2ccc(CCCl)cc2C1=Cc1cc(C(F)(F)F)ccc1F` [10728/G08], the “Biochem EGFR %Inhibition” value is -5.7%.
`O=C1Nc2ccc(CCCl)cc2C1=Cc1c(F)cccc1C(F)(F)F` [10728/G09]: the “Biochem EGFR %Inhibition” value is on record as -8.0%.
With `O=C(O)COc1ccccc1C=C1C(=O)Nc2ccc(CCCl)cc21` [10728/G10], the “Biochem EGFR %Inhibition” value is on record as -12.5%.
The result for `COc1cc(C=C2C(=O)Nc3ccc(CCCl)cc32)cc2c1OCO2` [10728/G11] reads 16.1%; that for `COc1ccc2ccccc2c1C=C1C(=O)Nc2c(Br)cc(Br)cc21` [10729/A02], 10.0%; that for `COc1ccc(C=C2C(=O)Nc3c(Br)cc(Br)cc32)c2ccccc12` [10729/A03], 27.0%.
In the case of `CSc1ccc(C=C2C(=O)Nc3c(Br)cc(Br)cc32)cc1` [10729/A04], the “Biochem EGFR %Inhibition” value turned out to be 58.8%.
With `Cc1ccsc1C=C1C(=O)Nc2c(Br)cc(Br)cc21` [10729/A05], the “Biochem EGFR %Inhibition” value amounted to 23.4%.
For `O=C1Nc2c(Br)cc(Br)cc2C1=Cc1cccc(Oc2ccccc2)c1` [10729/A06], the “Biochem EGFR %Inhibition” value worked out at 36.5%.
As for `O=C1Nc2c(Br)cc(Br)cc2C1=Cc1ccccn1` [10729/A07], the “Biochem EGFR %Inhibition” value was 49.0%.
The result for `O=C1Nc2c(Br)cc(Br)cc2C1=Cc1cccnc1` [10729/A08] reads 37.8%.
The result for `O=C1Nc2c(Br)cc(Br)cc2C1=Cc1ccncc1` [10729/A09] reads 25.7%; that for `O=C1Nc2c(Br)cc(Br)cc2C1=Cc1ccc(N2CCCC2)cc1` [10729/A10], 28.7%.
As for `O=C1Nc2c(Br)cc(Br)cc2C1=CC1C=CCCC1` (centres unmarked) [10729/A11], the “Biochem EGFR %Inhibition” value was 15.5%.
The result for `COc1ccc2ccccc2c1C=C1C(=O)Nc2ccc(I)cc21` [10729/B02] reads 34.9%; that for `COc1ccc(C=C2C(=O)Nc3ccc(I)cc32)c2ccccc12` [10729/B03], 38.2%.
`CSc1ccc(C=C2C(=O)Nc3ccc(I)cc32)cc1` [10729/B04]: the “Biochem EGFR %Inhibition” value was determined as 63.7%.
With `Cc1ccsc1C=C1C(=O)Nc2ccc(I)cc21` [10729/B05], the “Biochem EGFR %Inhibition” value stood at 50.6%.
For the compound `O=C1Nc2ccc(I)cc2C1=Cc1cccc(Oc2ccccc2)c1` [10729/B06], the “Biochem EGFR %Inhibition” value was determined as 56.9%.
For `O=C1Nc2ccc(I)cc2C1=Cc1ccccn1` [10729/B07], the “Biochem EGFR %Inhibition” value was 69.0%.
For `O=C1Nc2ccc(I)cc2C1=Cc1cccnc1` [10729/B08], the “Biochem EGFR %Inhibition” value came out at 53.2%.
Take `O=C1Nc2ccc(I)cc2C1=Cc1ccncc1` [10729/B09]: the “Biochem EGFR %Inhibition” value turned out to be 51.6%.
As to `O=C1Nc2ccc(I)cc2C1=Cc1ccc(N2CCCC2)cc1` [10729/B10], the “Biochem EGFR %Inhibition” value was determined as 68.3%.
As to `O=C1Nc2ccc(I)cc2C1=CC1C=CCCC1` (centres unmarked) [10729/B11], the “Biochem EGFR %Inhibition” value was 18.8%.
Turning to `COc1ccc2ccccc2c1C=C1C(=O)Nc2ccc(Br)c(C)c21` [10729/C02], the “Biochem EGFR %Inhibition” value is on record as 16.9%.
In the case of `COc1ccc(C=C2C(=O)Nc3ccc(Br)c(C)c32)c2ccccc12` [10729/C03], the “Biochem EGFR %Inhibition” value worked out at 25.7%.
With `CSc1ccc(C=C2C(=O)Nc3ccc(Br)c(C)c32)cc1` [10729/C04], the “Biochem EGFR %Inhibition” value came out at 35.9%.
Take `Cc1ccsc1C=C1C(=O)Nc2ccc(Br)c(C)c21` [10729/C05]: the “Biochem EGFR %Inhibition” value was found to be 21.8%.
The result for `Cc1c(Br)ccc2c1C(=Cc1cccc(Oc3ccccc3)c1)C(=O)N2` [10729/C06] reads 38.2%; that for `Cc1c(Br)ccc2c1C(=Cc1ccccn1)C(=O)N2` [10729/C07], 60.8%.
On to `Cc1c(Br)ccc2c1C(=Cc1cccnc1)C(=O)N2` [10729/C08], for which the “Biochem EGFR %Inhibition” value was found to be 25.4%.
For the compound `Cc1c(Br)ccc2c1C(=Cc1ccncc1)C(=O)N2` [10729/C09], the “Biochem EGFR %Inhibition” value is 33.2%.
Consider `Cc1c(Br)ccc2c1C(=Cc1ccc(N3CCCC3)cc1)C(=O)N2` [10729/C10], for which the “Biochem EGFR %Inhibition” value came to 45.7%.
The result for `Cc1c(Br)ccc2c1C(=CC1C=CCCC1)C(=O)N2` (centres unmarked) [10729/C11] reads 35.9%; that for `CNS(=O)(=O)c1ccc2c(c1)C(=Cc1c(OC)ccc3ccccc13)C(=O)N2` [10729/D02], -5.7%; that for `CNS(=O)(=O)c1ccc2c(c1)C(=Cc1ccc(OC)c3ccccc13)C(=O)N2` [10729/D03], 15.5%.
With `CNS(=O)(=O)c1ccc2c(c1)C(=Cc1ccc(SC)cc1)C(=O)N2` [10729/D04] the figure was 18.8%; with `CNS(=O)(=O)c1ccc2c(c1)C(=Cc1sccc1C)C(=O)N2` [10729/D05], 22.1%.
Turning to `CNS(=O)(=O)c1ccc2c(c1)C(=Cc1cccc(Oc3ccccc3)c1)C(=O)N2` [10729/D06], the “Biochem EGFR %Inhibition” value stood at 45.7%.
Consider `CNS(=O)(=O)c1ccc2c(c1)C(=Cc1ccccn1)C(=O)N2` [10729/D07], for which the “Biochem EGFR %Inhibition” value is on record as 21.4%.
For the compound `CNS(=O)(=O)c1ccc2c(c1)C(=Cc1cccnc1)C(=O)N2` [10729/D08], the “Biochem EGFR %Inhibition” value was determined as 10.3%.
For the compound `CNS(=O)(=O)c1ccc2c(c1)C(=Cc1ccncc1)C(=O)N2` [10729/D09], the “Biochem EGFR %Inhibition” value turned out to be 22.1%.
For the compound `CNS(=O)(=O)c1ccc2c(c1)C(=Cc1ccc(N3CCCC3)cc1)C(=O)N2` [10729/D10], the “Biochem EGFR %Inhibition” value is recorded as 11.3%.
`CNS(=O)(=O)c1ccc2c(c1)C(=CC1C=CCCC1)C(=O)N2` (centres unmarked) [10729/D11]: the “Biochem EGFR %Inhibition” value worked out at 19.2%.
